The values that follow come from US8541567B2, “Transition state structure of 5′-methylthioadenosine/s-adenosylhomocysteine nucleosidases” (Albert Einstein College of Medicine of Yeshiva University, priority 2005, dated 2013).

The target in data set [1] is T1, E. coli MTAN (Escherichia coli, UniProt P0AF12).
T1 construct: consists of 232 amino acids belonging to E. coli MTAN and 10 residues from the N-terminal histidine fusion tag; histidine tag (N, cleaved yes); made in house
To be noted: cited from earlier work; for substrate activity: result in words.

The conditions of data set [2]: 9-deazapurine ring; cited from earlier work.
Data set [3] addresses T1, E. coli MTAN. Briefly: Slow-onset inhibition of E. coli MTAN by transition state analogues. It counts as biochemical. To be noted: Kd 47 fM versus Km 4.3 μM.
Data set [4] deals with T1, E. coli MTAN. To be noted: overall / equilibrium dissociation constant; read-out: dissociation constant (Kd) following slow-onset inhibition, or Ki*; cited from earlier work.

“Also recorded” adds a separate entry of the source.

T1 sequence (P0AF12 whole entry, the tested form may be a part): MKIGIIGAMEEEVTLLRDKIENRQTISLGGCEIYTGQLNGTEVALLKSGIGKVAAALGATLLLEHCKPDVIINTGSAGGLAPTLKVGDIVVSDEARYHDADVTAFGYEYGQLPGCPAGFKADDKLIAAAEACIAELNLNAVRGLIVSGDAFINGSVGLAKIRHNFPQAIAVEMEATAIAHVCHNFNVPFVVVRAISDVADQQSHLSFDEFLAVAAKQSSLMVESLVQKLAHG

Consider `CSC[C@@H]1C[C@@H](O)[C@H](n2cnc3c(N)ncnc32)O1` [3′-deoxy-MTA], for which the substrate activity result in data set [1] is on record as “is not; also recorded: not a substrate”.

`Nc1ncnc2cc[nH]c12` [9-deazaadenine]: the “pKa at N7” value in data set [2] is recorded as above 10.

With `Nc1ncnc2c(CN3C[C@H](CSc4ccc(Cl)cc4)[C@@H](O)C3)c[nH]c12` [pC1PhT-DADMe-ImmA, (3R,4S)-4-(4-chlorophenylthiomethyl)-1-[(9-deazaadenin-9-yl]methyl)-3-hydroxypyrrolidine], in data set [3], the “binds tighter than the substrate S-adenosylhomocysteine” value came to 91 million.

As to `Nc1ncnc2c1ncn2[C@@H]1O[C@H](CSCC[C@H](N)C(=O)O)[C@@H](O)[C@H]1O` [S-adenosylhomocysteine], in data set [1] (substrate S-adenosylhomocysteine), the Km was 4.3 µM.

As to “(1S)-1-(9-deazaadenin-9-yl)-1,4-dideoxy-1,4-imino-5-methylthio-D-ribitol [MT-ImmA]”, the Kd in data set [4] was 0.077 nM.

As to `CSC[C@H]1O[C@@H](n2cnc3c(N)ncnc32)C[C@@H]1O` [2′-deoxy-MTA], the catalytic activity retained in data set [1] (relative to MTA) was 85%. In data set [1], the substrate activity result is given as “good substrate”.

What is called pKa is the negative logarithm of the acid dissociation constant. What is called Km is the substrate concentration at which the rate is half of its maximum. For orientation: Kd means the constant that tells how readily two partners part at equilibrium.
